Assay [1] concerns the target Protein smoothened (Mus musculus) (UniProt P56726). The assay can be described thus: Inhibition of SMO in mouse 3T3/HH FlashII-7 cells at 100 nM incubated for 36 hrs in presence of SHH by Gli-luciferase reporter assay. The format is cell-based. In general terms: A reporter such as luciferase makes a cellular process visible.
Assay [2] has as its target T1, Mitogen-activated protein kinase 1 (Homo sapiens, UniProt P28482). Put plainly: Inhibition of ERK2 (unknown origin) using kinase substrate 8 at 100 nM incubated for 40 mins in presence of ATP by mobility shift assay.
Assay [3] is described as follows: Antiproliferative activity against human RBE cells overexpressing Hh/ERK pathway assessed as inhibition of cell growth incubated for 96 hrs by CCK8 assay. The format is functional, cell-based. (In general: Tetrazolium assays rely on reduction of a dye to a coloured formazan, in cell work by metabolically active cells.)
Assay [4] can be described thus: Antiproliferative activity against human RBE cells overexpressing Hh/ERK pathway assessed as inhibition of cell growth incubated for 96 hrs by CCK8 assay relative to SCH772984. Format: functional.
The next assay has as its target Protein smoothened (Mus musculus, UniProt P56726). The assay can be described thus: Inhibition of SMO in mouse 3T3/HH FlashII-7 cells incubated for 36 hrs in presence of SHH by Gli-luciferase reporter assay. The format is cell-based.
The target in assay [5] is T1, Mitogen-activated protein kinase 1. The assay can be described thus: Inhibition of ERK2 (unknown origin) using kinase substrate 8 incubated for 40 mins in presence of ATP by mobility shift assay.

pIC50: −log10 of the molar value. Bounds are passed on as bounds.

T1 sequence (P28482 whole entry): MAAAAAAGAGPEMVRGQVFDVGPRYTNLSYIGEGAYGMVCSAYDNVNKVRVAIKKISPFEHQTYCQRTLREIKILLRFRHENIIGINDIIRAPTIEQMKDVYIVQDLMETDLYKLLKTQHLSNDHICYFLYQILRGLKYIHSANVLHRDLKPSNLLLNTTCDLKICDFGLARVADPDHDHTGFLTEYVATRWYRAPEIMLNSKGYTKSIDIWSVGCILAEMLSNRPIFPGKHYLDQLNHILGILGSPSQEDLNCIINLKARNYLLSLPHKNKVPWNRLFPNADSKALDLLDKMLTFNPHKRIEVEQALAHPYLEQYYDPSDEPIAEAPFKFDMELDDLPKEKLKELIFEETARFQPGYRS
Sequence of Protein smoothened (Mus musculus) (P56726 whole entry): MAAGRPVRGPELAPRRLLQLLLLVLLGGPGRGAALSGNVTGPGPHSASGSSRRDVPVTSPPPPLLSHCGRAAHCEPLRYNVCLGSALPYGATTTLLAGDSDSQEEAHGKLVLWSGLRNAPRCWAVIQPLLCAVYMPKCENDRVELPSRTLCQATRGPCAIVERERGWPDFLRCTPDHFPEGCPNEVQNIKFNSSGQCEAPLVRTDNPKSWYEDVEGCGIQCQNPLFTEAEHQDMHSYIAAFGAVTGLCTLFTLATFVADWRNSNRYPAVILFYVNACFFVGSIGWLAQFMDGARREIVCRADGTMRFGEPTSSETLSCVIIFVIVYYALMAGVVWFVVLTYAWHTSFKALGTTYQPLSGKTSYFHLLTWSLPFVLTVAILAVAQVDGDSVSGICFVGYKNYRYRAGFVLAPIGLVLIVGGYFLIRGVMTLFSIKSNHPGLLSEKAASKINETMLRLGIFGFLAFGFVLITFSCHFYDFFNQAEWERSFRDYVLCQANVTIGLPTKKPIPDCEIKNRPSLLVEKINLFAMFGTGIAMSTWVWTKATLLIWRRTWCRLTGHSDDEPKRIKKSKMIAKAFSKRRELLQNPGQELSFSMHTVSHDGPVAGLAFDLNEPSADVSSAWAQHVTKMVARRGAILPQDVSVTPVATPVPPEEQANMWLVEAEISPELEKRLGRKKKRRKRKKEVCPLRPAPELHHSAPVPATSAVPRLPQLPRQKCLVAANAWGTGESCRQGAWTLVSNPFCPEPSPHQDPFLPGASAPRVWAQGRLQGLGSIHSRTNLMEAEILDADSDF
Sequence of Protein smoothened (P56726 whole entry): as above

What is called inhibition is the change of the read-out against control, counted positive when it falls. What is called pIC50 is −log10 of the IC50, conventionally taken in molar units. For `Cc1c(-c2ccnn2C)nnc(N2CCC(NC(=O)Nc3ccc(Oc4nc(NC5CCOCC5)ncc4Cl)cc3)CC2)c1C`, the inhibition amounted to 89.9% in assay [1] and 80.9% in assay [2]. Further, the pIC50 in assay [3] is 4.91. Also, the “fold change (FC)” value in assay [4] was determined as 7.59.

For the compound `Cc1c(-c2ccnn2C)nnc(N2CCC(NC(=O)Nc3ccc(Oc4nc(Nc5cnn(C)c5)ncc4Cl)cc3)CC2)c1C`, the pIC50 on Protein smoothened was 7.75. The inhibition in assay [2] worked out at 46%.

Take `Cc1c(-c2ccnn2C)nnc(N2CCC(NC(=O)Nc3ccc(Oc4nc(Nc5ccn(C)n5)ncc4Cl)cc3)CC2)c1C`: the inhibition in assay [2] was 6.6%.

For the compound `Cc1c(-c2cnn(C)c2)nnc(N2CCC(NC(=O)Nc3ccc(Oc4nc(NC5CCOCC5)ncc4Cl)cc3)CC2)c1C`, the negative logarithm of the IC50 (pIC50) was 6.39 on Protein smoothened and 7.39 in assay [5].

Turning to `Cc1c(-c2ccnn2C)nnc(N2CCC(NC(=O)Nc3ccc(Oc4nc(Nc5ccnn5C)ncc4Cl)cc3)CC2)c1C`, in assay [2], the inhibition turned out to be 1.1%.

On to `Cc1c(-c2ccnn2C)nnc(N2CCC(NC(=O)Nc3ccc(Sc4nc(NC5CCOCC5)ncc4Cl)cc3)CC2)c1C`, for which the pIC50 at Protein smoothened was 7.75; in assay [3] it was 5.66. Moreover, in assay [2], the inhibition was 91.2%. In assay [4], the “fold change (FC)” value came to 1.33.

Take `Cc1c(-c2ccnn2C)nnc(N2CCC(NC(=O)Nc3ccc(Oc4nc(NC5CCOCC5)ncc4C(F)(F)F)cc3)CC2)c1C`: the pIC50 at Protein smoothened was 6.72. In assay [2], the inhibition was determined as 85%.

In the case of `Cn1nccc1-c1ccc(N2CCC(NC(=O)Nc3ccc(Oc4nc(NC5CCOCC5)ncc4Cl)cc3)CC2)nn1`, the values for the inhibition in assay [1] and in assay [2] were 68.5% and 46.4%, respectively.

With `Cc1c(-c2ccnn2C)nnc(N2CCC(NC(=O)Nc3ccc(Oc4nc(NC(C)C)ncc4Cl)cc3)CC2)c1C`, in assay [2], the inhibition came to 5.6%.

As for `Cc1c(-c2ccnn2C)nnc(N2CCC(NC(=O)Nc3ccc(Nc4nc(NC5CCOCC5)ncc4Cl)cc3)CC2)c1C`, the pIC50 on Protein smoothened was 7.19. In addition, the inhibition in assay [2] came out at 36.9%.

As to `Cc1c(-c2ccnn2C)nnc(N2CCC(NC(=O)c3ccc(NC(=O)c4ccnc(NC5CCOCC5)n4)cc3C(F)(F)F)CC2)c1C`, the pIC50 in assay [5] was 5.48. Also, the inhibition in assay [1] is 68.2%.

Regarding `Cn1cc(-c2ccc(N3CCC(NC(=O)Nc4ccc(Oc5nc(NC6CCOCC6)ncc5Cl)cc4)CC3)nn2)cn1`, the pIC50 was less than 6.00 at Protein smoothened and 6.79 in assay [5].

As to `Cc1c(-c2ccnn2C)nnc(N2CCC(NC(=O)Nc3ccc(Sc4nc(NC5CCOCC5)ncc4C(F)(F)F)cc3)CC2)c1C`, the pIC50 at Protein smoothened is 6.81; in assay [3], 5.84. The inhibition in assay [2] was 84.2%. Besides, the “fold change (FC)” value in assay [4] is given as 0.89.

`O=C(Nc1ccc2[nH]nc(-c3ccncc3)c2c1)[C@@H]1CCN(CC(=O)N2CCN(c3ccc(-c4ncccn4)cc3)CC2)C1`: the pIC50 in assay [3] is 5.79.

On to `CN(C(=O)c1ccc(F)cc1C(F)(F)F)C1CCN(c2nnc(-c3ccnn3C)c3ccccc23)CC1` [TALADEGIB], for which the pIC50 at Protein smoothened is 8.93; in assay [3], less than 4.30.

Regarding `Cc1cnc(NC2CCOCC2)nc1Oc1ccc(NC(=O)NC2CCN(c3nnc(-c4ccnn4C)c(C)c3C)CC2)cc1`, at Protein smoothened, the pIC50 is 6.82. In assay [2], the inhibition came to 60.7%.

On to `Cc1c(-c2ccnn2C)nnc(N2CCC(NC(=O)Nc3ccc(Oc4ccnc(NC5CCOCC5)n4)cc3)CC2)c1C`, for which the pIC50 in assay [5] was 5.88. Also, in assay [1], the inhibition is 90.4%.

These data come from ChEMBL document CHEMBL5096217, “Design, synthesis and biological evaluation of novel 4-aminopiperidine derivatives as SMO/ERK dual inhibitors” (Bioorg Med Chem, 2022).
